Assay results taken from patent US7833795B2, “Assessment of cardiovascular risk using isoprostane biomarkers and COX-2 selective inhibitors” (The Trustees of the University of Pennsylvania, priority 2004, dated 2010).

Experiments:
Format in all cases: in vivo, rat
Male Fisher 344 rats [1] = assay: Plasma lipid hydroperoxides (LPO assay kit) after CCl4; settings: for LOOH (by LPO assay kit): plasma
Protocol: (§1) Animals and treatment protocol: Male Fisher 344 rats (260-280 g) obtained from Charles River Laboratories (Raleigh, N.C.) were used in all experiments. The animals were housed three to a cage. Autoclaved hardwood bedding was used in solid-bottom polycarbonate cages with filter tops. Animal rooms were maintained at 20-25° C. with 35-70% relative humidity with alternating 12-hour light and dark cycles. The rats had free access to deionized, reverse-osmosis-treated water and received autoclaved NIH 31 rodent chow (Zeigler Bros., Gardners, Pa.) ad libitum. For all experiments, rats were fasted overnight and then administered intraperitoneal injections of carbon tetrachloride in canola oil. Control rats received an equal volume of canola oil. Fasting continued throughout the experiment. Rats were anesthetized with Nembutal (0.1 ml/100 g body weight) and 5 ml blood was removed from the dorsal aorta proximal to its bifurcation into the common iliac arteries.
(§2) Carbon tetrachloride (CCL4) treatment: Animals from each of the three dose groups (Control-canola oil, 120 mg/kg CCl4 i.p. and 1200 mg/kg CCl4 i.p.) were investigated at three time points (2, 7, and 16 hours after CCl4 injection). Indomethacin-pretreated rats were also investigated at the same three time points, and the meclofenamic acid-pretreated rats were investigated at one time point (7 hours). Each group consisted of five rats for each analysis, except the meclofenamic acid pretreatment group which consisted of six rats. Animal treatment, sample preparation, assessment of liver histology and serum enzyme activities are described elsewhere (Kadiiska et al., 2000, Free Radic. Biol. Med. 28: 838-845; Jackson, 1989, J. Pharmacol. Exp. Ther. 250: 9-21) and were carried out at NIEHS, Research Triangle Park, N.C.
(§3) Plasma sample preparation: Blood (5 ml) was drawn through single draw Vacutainer® needles (21 Gauge) into open Vacutainer® blood collection tubes containing heparin. The tubes were gently inverted 2-3 times for mixing and immediately placed on ice. Blood was centrifuged (2,000 rpm for 10 minutes at 4° C.) no more than 30 minutes after collection, and the plasma was collected, frozen on dry ice and stored at −70° C.
Two assays were used to measure the effect of CCl4 on lipid hydroperoxides. A lipid hydroperoxide assay kit (Catalog No. 705002) from Cayman Chemical Company (Ann Arbor, Mich.) was used to measure hydroperoxides directly, utilizing the redox reaction with ferrous ion. Hydroperoxides were extracted into chloroform and reacted with ferrous ions to produce ferric ions. The resulting ferric ions were detected using thiocyanate ion as the chromogen. The hydroperoxide concentration was determined based on the absorption at 504 nm using a Beckman DU-7 spectrophotometer at room temperature. The experiments were performed at National Institute of Environmental Health Sciences (NIEHS), Research Triangle Park, N.C.

Male Fisher 344 rats [2] = assay: Plasma free 8-iso-PGF2α by GC/NICI-MS; settings: for Free 8-iso-PGF2a (by GC-MS): plasma
Protocol: as §1
(§4) Indomethacin pretreatment: The indomethacin regimen used has been previously shown to inhibit COX activity in rats by 90% (dose of 5 mg/kg s.c. 24 hours, 12 hours, and 2 hours prior to the injection of CCl4) (Jackson, 1989, J. Pharmacol. Exp. Ther. 250: 9-21). An additional booster dose was injected 8 hours after the last injection of CCl4 for the measurements performed 16 hours after treatment with CCl4.
(§5) Meclofenamic acid pretreatment: Meclofenamic acid was injected at a dose of 5 mg/kg i.p. 12 h and 2 h prior to the injection of CCl4.
as §2, §3
Two slightly different methods developed in two different laboratories were used to measure the effect of CCl4 on the plasma levels of free 8-iso-PGF2α, and the sum of free plus esterified 8-iso-PGF2α (also known as 8-epi-PGF2α and iPF2α-III and 15-F2t-IsoP). Free 8-iso-PGF2α concentrations in plasma were determined by gas chromatography/negative ion chemical ionization mass spectrometry (GC/NICI-MS) by the method of Morrow et al. (1999, Methods Enzymol. 300: 3-12). Briefly, [2H4] 8-iso-PGF2α internal standard was added to plasma and F2-isoprostanes were extracted with a C18 Sep-Pak® Cartridge (Waters Associates, Milford, Mass.). The extracted F2-isoprostanes were converted to pentafluorobenzyl ester and purified by TLC after which they were converted to a trimethylsilyl ether derivative and subsequently analyzed by GC-MS. The assay was developed and performed at Vanderbilt University, Nashville, Tenn.

Male Fisher 344 rats [3] = assay: Plasma protein carbonyls
Protocol: as §1, §2, §3
Several different assays for oxidation products of proteins were employed. The protein carbonyl content (Agarwal and Sohal, 1995, Mech. Ageing Develop. 85: 55-63), indicative of plasma protein oxidative damage, was measured according to the method of Levine et al. (Levine et al., 1994, Meth. Enzymol. 233: 346-357), based on derivatization of carbonyls with tritiated borohydride, as described in detail by Yan and Sohal (2000, Current Protocols Protein Science 144: 105-128). The isolated protein was counted in a Beckman scintillation counter and calculated using a standard curve. The measurements were performed at the University of Southern California, Los Angeles.

Male Fisher 344 rats [4] = assay: Urinary 8,12-iso-iPF2α-VI by LC/MS/MS; settings: for 8,12-iso-iPF2a-VI (by LC/MS/MS): urine
Protocol: as §1, §4, §5, §2
Urine sample preparation: The day prior to treatment, both experimental and control animals were placed in stainless steel metabolic cages especially designed for urine collection. For Experimental Example 2, animals were placed in metabolic cages immediately after the last injection of indomethacin or meclofenamic acid. Urine was collected (in dark vials) from the animals during the following intervals: 2 to 7 hours and 7 to 16 hours after CCl4 or canola oil (controls) treatment. Urine samples from indomethacin-pretreated rats were collected from 2 to 7 hours and 7 to 16 hours after the injection of CCl4, whereas samples from meclofenamic-acid-pretreated rats were collected only from 2 to 7 hours after the injection. All urine samples were immediately frozen on dry ice and stored at −70° C.
Analysis of 8,12-iso-iPF2α-VI, which is, along with its epimer 5-epi-8,12-iso-iPF2α-VI, the most prevalent PGF-ring isoprostane in human urine, was accomplished by addition of a tetradeuterated analog, solid phase extraction and quantitation using liquid chromatography and tandem mass spectroscopy (LC/MS/MS) (Li et al., 1999, Proc. Natl. Acad. Sci. USA 96: 13381-13386). The measurements were performed at the University of Pennsylvania, Philadelphia, Pa.

ClC(Cl)(Cl)Cl [CCl4, Carbon tetrachloride]
LOOH (by LPO assay kit) (Male Fisher 344 rats [1]; CCl4 120 mg/kg i.p., 2 h): 0.96 µM
LOOH (by LPO assay kit) (Male Fisher 344 rats [1]; CCl4 120 mg/kg i.p., 7 h): 1.20 µM
LOOH (by LPO assay kit) (Male Fisher 344 rats [1]; CCl4 120 mg/kg i.p., 16 h): 1.60 µM
LOOH (by LPO assay kit) (Male Fisher 344 rats [1]; CCl4 1200 mg/kg i.p., 2 h): 1.42 µM
LOOH (by LPO assay kit) (Male Fisher 344 rats [1]; CCl4 1200 mg/kg i.p., 7 h): 1.35 µM
LOOH (by LPO assay kit) (Male Fisher 344 rats [1]; CCl4 1200 mg/kg i.p., 16 h): 1.64 µM
increase of lipid hydroperoxides compared to controls (kit) (Male Fisher 344 rats [1]; high dose CCl4, 2 hour): 3 fold
Free 8-iso-PGF2a (by GC-MS) (Male Fisher 344 rats [2]; CCl4 120 mg/kg i.p., 2 h): 0.48 ng/mL
Free 8-iso-PGF2a (by GC-MS) (Male Fisher 344 rats [2]; CCl4 120 mg/kg i.p., 7 h): 0.34 ng/mL
Free 8-iso-PGF2a (by GC-MS) (Male Fisher 344 rats [2]; CCl4 120 mg/kg i.p., 16 h): 0.27 ng/mL
Free 8-iso-PGF2a (by GC-MS) (Male Fisher 344 rats [2]; CCl4 1200 mg/kg i.p., 2 h): 1.80 ng/mL
Free 8-iso-PGF2a (by GC-MS) (Male Fisher 344 rats [2]; CCl4 1200 mg/kg i.p., 7 h): 1.27 ng/mL
Free 8-iso-PGF2a (by GC-MS) (Male Fisher 344 rats [2]; CCl4 1200 mg/kg i.p., 16 h): 0.74 ng/mL
increase of free plasma 8-iso-PGF2α (Male Fisher 344 rats [2]; high dose CCl4, 2 hours): 18 fold
increase of free plasma 8-iso-PGF2α (Male Fisher 344 rats [2]; high dose CCl4, 7 hours): 10 fold
increase of free plasma 8-iso-PGF2α (Male Fisher 344 rats [2]; high dose CCl4, 16 hours): 7 fold
Protein carbonyls (by HPLC) (Male Fisher 344 rats [3]; CCl4 120 mg/kg i.p., 2 h): 0.40 nmol/mg protein
Protein carbonyls (by HPLC) (Male Fisher 344 rats [3]; CCl4 120 mg/kg i.p., 7 h): 0.42 nmol/mg protein
Protein carbonyls (by HPLC) (Male Fisher 344 rats [3]; CCl4 120 mg/kg i.p., 16 h): 0.51 nmol/mg protein
Protein carbonyls (by HPLC) (Male Fisher 344 rats [3]; CCl4 1200 mg/kg i.p., 2 h): 0.53 nmol/mg protein
Protein carbonyls (by HPLC) (Male Fisher 344 rats [3]; CCl4 1200 mg/kg i.p., 7 h): 0.59 nmol/mg protein
Protein carbonyls (by HPLC) (Male Fisher 344 rats [3]; CCl4 1200 mg/kg i.p., 16 h): 0.48 nmol/mg protein
8,12-iso-iPF2a-VI (by LC/MS/MS) (Male Fisher 344 rats [4]; CCl4 120 mg/kg i.p., 7 h): 36.8 ng/mL
8,12-iso-iPF2a-VI (by LC/MS/MS) (Male Fisher 344 rats [4]; CCl4 120 mg/kg i.p., 16 h): 32.4 ng/mL
8,12-iso-iPF2a-VI (by LC/MS/MS) (Male Fisher 344 rats [4]; CCl4 1200 mg/kg i.p., 7 h): 84.3 ng/mL
8,12-iso-iPF2a-VI (by LC/MS/MS) (Male Fisher 344 rats [4]; CCl4 1200 mg/kg i.p., 16 h): 78.5 ng/mL
increase of urinary 8,12-iso-iPF2α-VI (Male Fisher 344 rats [4]; high dose CCl4, 7 h): 17 fold
increase of urinary 8,12-iso-iPF2α-VI (Male Fisher 344 rats [4]; high dose CCl4, 16 h): 7 fold
